Counter-ions that a name gives are not always drawn.
| melting point [°C] | SMILES |
| --- | --- |
| 110 to 115 | CCCCc1oc2ccc(C(=O)OC(C)C)cc2c1C(=O)c1cc(C)c(/C=C/CN(CCCC)CCCC)c(C)c1 (as salt: oxalate) [Example 44] |
| 110 to 114 | CCCCc1oc2cc(C(=O)OC(C)C)ccc2c1C(=O)c1ccc(/C=C/CN(CCCC)CCCC)cc1 (as salt: hydrochloride) [Example 38] |
| 112 | CCCCc1oc2ccc(C(=O)OC(C)C)cc2c1C(=O)c1ccc(/C=C/CN(CCCC)CCCC)cc1 (as salt: oxalate) [Example 39] |
| 189 to 191 | CCCCN(C/C=C/c1ccc(C(=O)c2c(C)oc3ccc(C(=O)OC(C)C)cc23)cc1)CCCC (as salt: hydrochloride) [Example 50] |
| 91 to 93 | CCCCc1oc2ccc(C(=O)OC(C)C)cc2c1C(=O)c1cc(Cl)c(/C=C/CN(CCCC)CCCC)c(Cl)c1 (as salt: oxalate) [Example 51] |
| 171 to 173 | CCCCN(C/C=C/c1ccc(C(=O)c2c(C3CCCCC3)oc3ccc(C(=O)OC(C)C)cc23)cc1)CCCC (as salt: hydrochloride) [Example 43] |

Further lines, the molecule ahead of its results:

| SMILES | melting point [°C] |
| --- | --- |
| CCCCN(C/C=C/c1ccc(C(=O)c2c(CC(C)C)oc3ccc(C(=O)OC(C)C)cc23)cc1)CCCC (as salt: hydrochloride) [Example 40] | 147 to 150 |
| CCCCNCC#Cc1ccc(C(=O)c2c(CCCC)oc3ccc(C(=O)OC(C)C)cc23)cc1 (as salt: hydrochloride) [Example 36] | 166 to 167 |
| CCCCc1oc2ccc(C(=O)OC)cc2c1C(=O)c1ccc(C#CCN2CCCCC2)cc1 (as salt: hydrochloride) [Example 34] | 153 to 154 |
| CCCCc1oc2c(C(=O)OC(C)C)cccc2c1C(=O)c1ccc(/C=C/CN(CCCC)CCCC)cc1 (as salt: oxalate) [Example 52] | 120 |
| CCCCc1oc2cc(C)c(C(=O)OC(C)C)cc2c1C(=O)c1ccc(/C=C\CN(CCCC)CCCC)cc1.Cl | 129 |
